# Target: T1, Fatty acid amide hydrolase (FAAH) (Mus musculus, UniProt O08914)
# T1 construct: endogenous FAAH in BV2 microglial cell membrane fraction
# T1 sequence (O08914 1-579): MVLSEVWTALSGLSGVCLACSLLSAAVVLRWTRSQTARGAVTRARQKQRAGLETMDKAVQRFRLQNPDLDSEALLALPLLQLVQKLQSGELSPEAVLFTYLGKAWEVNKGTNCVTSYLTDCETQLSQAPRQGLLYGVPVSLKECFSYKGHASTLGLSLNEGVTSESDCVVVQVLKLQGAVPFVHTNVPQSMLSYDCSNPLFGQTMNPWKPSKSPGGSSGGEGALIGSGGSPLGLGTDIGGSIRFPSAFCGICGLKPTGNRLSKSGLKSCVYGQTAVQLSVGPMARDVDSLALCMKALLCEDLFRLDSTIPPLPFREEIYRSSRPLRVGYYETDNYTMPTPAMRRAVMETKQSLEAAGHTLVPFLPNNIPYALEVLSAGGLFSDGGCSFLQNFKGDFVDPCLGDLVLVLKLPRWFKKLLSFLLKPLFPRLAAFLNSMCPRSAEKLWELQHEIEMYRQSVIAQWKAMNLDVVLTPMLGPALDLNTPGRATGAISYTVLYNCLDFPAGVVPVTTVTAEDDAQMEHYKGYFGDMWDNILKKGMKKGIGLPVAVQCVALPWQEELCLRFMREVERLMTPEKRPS
# Assay: radiolabeled AEA hydrolysis in BV2 membranes; blocked by FAAH inhibitors, reduced […] by FAAH siRNA
# Format: cell-based
smiles,measurement,value
CCCCC/C=C\C/C=C\C/C=C\C/C=C\CCCC(=O)NCCO [anandamide],"radiolabeled AEA hydrolysis in BV2 membranes; blocked by FAAH inhibitors, reduce",These results indicated that all AEA hydrolysis activity was attributed to FAAH in BV2 microglial cells.
